In brackets after ≈: the same amount, converted by molar mass.
Tests used:
Type in all cases: cell-based
A. fumigatus s 1008 = assay: In vitro MIC, NCCLS M38P broth method (RPMI 1640/MOPS pH7), Aspergillus fumigatus; conditions: A. fumigatus strain 1008
Cryptococcus neoformans = assay: In vitro MIC, NCCLS M27A, Cryptococcus neoformans; design: MIC, C. neoformans I: unit not given beside the values; MIC, C. neoformans M 106: unit not given here; conditions: for MIC, C. neoformans I: C. neoformans strain I; for MIC, C. neoformans M 106: C. neoformans strain M 106
Candida = assay: In vitro MIC, NCCLS M27A, Candida species; design: MIC, Candida albicans 1.549 / MIC, Candida albicans Y-01-19 / MIC, C. krusei 766-1 / MIC, C. krusei Q. C / MIC, Candida tropicalis ATCC / MIC, C. glabrata 90030: unit not given beside the values; MIC, Candida albicans A 26 / MIC, C. parapsilosis Q. C.: unit not given here; conditions: for MIC, C. glabrata 90030: C. glabrata strain 90030; for MIC, C. krusei 766-1: C. krusei strain 766-1; for MIC, C. krusei Q. C: C. krusei strain Q. C; for MIC, C. parapsilosis Q. C.: C. parapsilosis strain Q. C.; for MIC, Candida albicans 1.549: Candida albicans strain 1.549; for MIC, Candida albicans A 26: Candida albicans strain A 26; for MIC, Candida albicans Y-01-19: Candida albicans strain Y-01-19
Histoplasma capsulatum = system: Histoplasma capsulatum

SMILES | MIC, A. fumigatus 1008 (A. fumigatus s 1008) | MIC, C. neoformans I (Cryptococcus neoformans) | MIC, C. neoformans M 106 (Cryptococcus neoformans) | MIC, C. glabrata 90030 (Candida) | MIC, C. krusei 766-1 (Candida) | MIC, C. krusei Q. C (Candida) | MIC, C. parapsilosis Q. C. (Candida) | MIC, Candida albicans 1.549 (Candida) | MIC, Candida albicans A 26 (Candida) | MIC, Candida albicans Y-01-19 (Candida) | MIC, Candida tropicalis ATCC (Candida) | MIC, H. capsulatum (Histoplasma capsulatum) [µg/mL]
COc1ccc(N2CCN(c3ccc(-n4cnn([C@H](C)[C@@](O)(Cn5cncn5)c5ccc(F)cc5F)c4=O)cc3)CC2)cc1 [Compound 14, 2-{[1R2S/1S2R]-2-(2,4-Difluorophenyl)-2-hydroxy-1-methyl-3-(1H-1,2,4-triazol-1-yl)propyl}-4-{4-[4-(4-methoxyphenyl)-1-piperazinyl]phenyl}-3-(2H,4H)-1,2,4-triazolone] | >16 | 0.50 | <0.03 | 2.00 | >16 | 16.0 | 0.06 | 2.00 | <0.03 | 2.00 | <0.03 | 0.12 (≈ 0.199 µM)
C[C@@H](n1ncn(-c2ccc(N3CCN(c4ccc(F)c(Cl)c4)CC3)cc2)c1=O)[C@](O)(Cn1cncn1)c1ccc(F)cc1F [Compound 15, 2-{[1R2R/1S2S]-2-(2,4-Difluorophenyl)-2-hydroxy-1-methyl-3-(1H-1,2,4-triazol-1-yl)propyl}-4-{4-[4-(3-chloro-4-fluorophenyl)-1-piperazinyl]phenyl}-3-(2H,4H)-1,2,4-triazolone] | 0.50 | <0.03 | <0.03 | 0.50 | 0.50 | 0.25 | <0.03 | 1.00 | <0.03 | 0.25 | <0.03 | 0.12 (≈ 0.192 µM)
C[C@@H](n1ncn(-c2ccc(N3CCN(c4ccc(F)c(Cl)c4)CC3)cc2)c1=O)[C@@](O)(Cn1cncn1)c1ccc(F)cc1F [Compound 16, 2-{[1R2S/1S2R]-2-(2,4-Difluorophenyl)-2-hydroxy-1-methyl-3-(1H-1,2,4-triazol-1-yl)propyl}-4-{4-[4-(3-chloro-4-fluorophenyl)-1-piperazinyl]phenyl}-3-(2H,4H)-1,2,4-triazolone] | >16 | 0.12 | 0.12 | 0.50 | >16 | 1.00 | 0.06 | 4.00 | <0.03 | 1.00 | <0.03 | 0.5 (≈ 0.8 µM)
Cc1ccc(N2CCN(c3ccc(-n4cnn([C@H](C)[C@](O)(Cn5cncn5)c5ccc(F)cc5F)c4=O)cc3)CC2)cc1Cl [Compound 17, 2-{[1R2R/1S2S]-2-(2,4-Difluorophenyl)-2-hydroxy-1-methyl-3-(1H-1,2,4-triazol-1-yl)propyl}-4-{4-[4-(3-chloro-4-methylphenyl)-1-piperazinyl]phenyl}-3-(2H,4H)-1,2,4-triazolone] | 0.25 | <0.03 | <0.03 | 0.50 | 0.50 | 0.50 | <0.03 | 0.25 | <0.03 | 0.25 | <0.03 | 0.25 (≈ 0.403 µM)
Cc1ccc(N2CCN(c3ccc(-n4cnn([C@H](C)[C@@](O)(Cn5cncn5)c5ccc(F)cc5F)c4=O)cc3)CC2)cc1Cl [Compound 18, 2-{[1R2S/1S2R]-2-(2,4-Difluorophenyl)-2-hydroxy-1-methyl-3-(1H-1,2,4-triazol-1-yl)propyl}-4-{4-[4-(3-chloro-4-methylphenyl)-1-piperazinyl]phenyl}-3-(2H,4H)-1,2,4-triazolone] | >16 | 0.12 | 0.25 | 1.00 | >16 | 2.00 | 0.25 | 2.00 | <0.03 | 1.00 | <0.03 | 0.25 (≈ 0.403 µM)
Cc1ccc(N2CCN(c3ccc(-n4cnn([C@H](C)[C@](O)(Cn5cncn5)c5ccc(F)cc5F)c4=O)cc3)CC2)c(C)c1 [Compound 19, 2-{[1R2R/1S2S]-2-(2,4-Difluorophenyl)-2-hydroxy-1-methyl-3-(1H-1,2,4-triazol-1-yl)propyl}-4-{4-[4-(2,4-dimethylphenyl)-1-piperazinyl]phenyl}-3-(2H,4H)-1,2,4-triazolone] | >16 | <0.03 | <0.03 | >16 | >16 | 0.50 | 0.06 | 1.00 | <0.03 | 1.00 | <0.03 | 0.5 (≈ 0.832 µM)
Cc1ccc(N2CCN(c3ccc(-n4cnn([C@H](C)[C@@](O)(Cn5cncn5)c5ccc(F)cc5F)c4=O)cc3)CC2)c(C)c1 [Compound 20, 2-{[1R2S/1S2R]-2-(2,4-Difluorophenyl)-2-hydroxy-1-methyl-3-(1H-1,2,4-triazol-1-yl)propyl}-4-{4-[4-(2,4-dimethylphenyl)-1-piperazinyl]phenyl}-3-(2H,4H)-1,2,4-triazolone] | >16 | 0.25 | 0.25 | 2.00 | >16 | 2.00 | 0.12 | 8.00 | <0.03 | 2.00 | <0.03 | 0.5 (≈ 0.832 µM)

— patent US6670363B1, “Azole compounds as therapeutic agents for fungal infections” (Ranbaxy Laboratories Limited, priority 2000, dated 2003)
